Pest or weed control and mortality data for 22 molecules are collected here from patent publication US12384769B2, “Heteroaryl-substituted aminoalkyl azole compounds as pesticides” (Elanco Animal Health GmbH, priority 2019, dated 2025).

Structures are written as SMILES.

What all share (type): in vivo
One experiment has as its system Diabrotica balteata. Kind of experiment: Diabrotica balteata spray test. The settings on record: 168 h, wheat seeds, after 7 days, read-out: activity (efficacy, seedlings grown); for pest or weed control at 160 µg/disc, 500 g/ha: 500 g/ha (=160 μg/well). How it is done:
Diabrotica balteata—Spray Test
Solvent: 78.0 parts by weight of acetone • • 1.5 parts by weight of dimethylformamide
(§1) Emulsifier: alkylarylpolyglycol ether
To produce a suitable preparation of active compound, 1 part by weight of active compound is mixed with the stated amount of solvent, and the concentrate is diluted with water, containing an emulsifier concentration of 1000 ppm, to the desired concentration. Further test concentrations are prepared by dilution with emulsifier containing water.
Soaked wheat seeds (Triticum aestivum) are placed in a multiple well plate filled with agar and some water and are incubated for 1 day to germinate (5 seeds per well). The germinated wheat seeds are sprayed with a test solution containing the desired concentration of the active ingredient. Afterwards each unit is infected with 10-20 larvae of the banded cucumber beetle (Diabrotica balteata).
After 7 days efficacy in % is determined. 100% means all the seedlings have grown up like in the untreated, uninfected control; 0% means none of the seedlings have grown.

Experiment [1] deals with Rhipicephalus microplus (strain Parkhurst, resistant against synthetic pyrethroids). Kind of experiment: Rhipicephalus microplus in-vitro contact test, larval cattle tick (BOOPMI Contact). The settings on record: 5 μg/cm^2 (=500 g/ha), after 48 hours, read-out: activity (efficacy, larvae dead or moribund). The procedure: Rhipicephalus microplus—in-Vitro Contact Tests Larval Cattle Tick (Strain Parkhurst, Resistant Against Synthetic Pyrethroids) (BOOPMI Contact)
9 mg compound is solved in 1 ml acetone and diluted with acetone to the desired concentration. 250 μL of the test solution is filled in 25 ml glass test tubes and homogeneously distributed on the inner walls by rotation and tilting on a shaking device (2 h at 30 rpm). With a compound concentration of 900 ppm, an inner surface of 44.7 cm^2 and a homogeneous distribution, a dose of 5 μg/cm^2 is achieved.
After the solvent has evaporated, each test tube is filled with 20-50 cattle tick larvae (Rhipicephalus microplus), closed with a perforated lid and incubated in a horizontal position at 85% relative humidity and 27° C. in an incubator. After 48 hours efficacy is determined. The larvae are patted on the ground of the tubes and negative geotactic behaviour is recorded.
An efficacy of 100% means all larvae are dead or moribund; 0% means no larvae are dead or moribund.

Another experiment concerns Spodoptera frugiperda. Kind of experiment: Spodoptera frugiperda spray test. The settings on record: in Zea mays, 168 h, read-out: activity (mortality). How it is done: Spodoptera frugiperda—Spray Test
Solvent: 78.0 parts by weight acetone • 1.5 parts by weight dimethylformamide
as §1
To produce a suitable preparation of active compound, 1 part by weight of active compound is mixed with the stated amount of solvents and is diluted with water, containing an emulsifier concentration of 1000 ppm, to the desired concentration. Further test concentrations are prepared by dilution with emulsifier containing water.
Maize (Zea mays) leaf sections are sprayed with a preparation of the active ingredient of the desired concentration. Once dry, the leaf sections are infested with fall armyworm larvae (Spodoptera frugiperda).
After 7 days mortality in % is determined. 100% means all caterpillars have been killed and 0% means none of the caterpillars have been killed.

The next experiment has as its system Boophilus microplus. Kind of experiment: Boophilus microplus injection test (BOOPMI Injection). The settings on record: Rhipicephalus microplus, 168 h, injection into adult engorged female ticks, egg deposition after 7 days, read-out: activity (efficacy, infertile eggs); for pest or weed control at 0.004 mg: 4 μg/animal; for pest or weed control at 0.02 mg: 20 μg/animal. How it is done: Boophilus microplus—Injection Test (BOOPMI Injection)
Solvent: dimethyl sulfoxide
To produce a suitable preparation of active compound, 10 mg of active compound are dissolved in 0.5 mL solvent, and the concentrate is diluted with solvent to the desired concentration.
Five adult engorged female ticks (Boophilus microplus) are injected with 1 μL compound solution into the abdomen. The ticks are transferred into replica plates and incubated in a climate chamber.
After 7 days egg deposition of fertile eggs is monitored. Eggs where fertility is not visible are stored in a climate chamber till hatching after about 42 days. An efficacy of 100% means all eggs are infertile; 0% means all eggs are fertile.

Take `C[C@H](Nc1nc2cc(C(F)(F)F)ccc2o1)c1ncnn1-c1ncccn1` [Example I-003]: the pest or weed control at 160 µg/disc, 500 g/ha with Diabrotica balteata was determined as 80%.

One may read the mortality as the percentage killed. Consider `C[C@H](Nc1nc2cc(C(F)(F)F)cc(Cl)c2o1)c1ncnn1-c1ccc(Cl)cn1` [Example I-015], for which the pest or weed control at 5 µg/cm2 in experiment [1] was 100%. The mortality at 500 g/ha with Spodoptera frugiperda turned out to be 100%. Further, the pest or weed control at 160 µg/disc, 500 g/ha in the experiment with Diabrotica balteata came to 100%. Besides, in the experiment on Boophilus microplus, the pest or weed control at 0.004 mg is 80% and the pest or weed control at 0.02 mg came out at 100%.

Regarding `C[C@H](Nc1nc2cc(C(F)(F)F)cc(Cl)c2o1)c1ncnn1-c1ccc(C#N)cn1` [Example I-018], the pest or weed control at 5 µg/cm2 in experiment [1] was determined as 80%. In the experiment on Spodoptera frugiperda, the mortality at 100 g/ha was 100% and the mortality at 500 g/ha came to 100%. For the same molecule, in the experiment on Diabrotica balteata, the pest or weed control at 100 g/ha worked out at 100% and the pest or weed control at 160 µg/disc, 500 g/ha was found to be 100%. In the experiment with Boophilus microplus, the pest or weed control at 0.004 mg amounted to 100% and the pest or weed control at 0.02 mg worked out at 100%.

In the case of `Cc1nc([C@H](C)Nc2nc3cc(C(F)(F)F)cc(Cl)c3o2)n(-c2ccc(C#N)cn2)n1` [Example I-020], in experiment [1], the pest or weed control at 5 µg/cm2 is 100%.

For `Cc1nc([C@H](C)Nc2nc3cc(C(F)(F)F)cc(C(F)(F)F)c3o2)n(-c2ccc(C#N)cn2)n1` [Example I-021], the pest or weed control at 5 µg/cm2 in experiment [1] was found to be 80%. In addition, in the experiment on Diabrotica balteata, the pest or weed control at 100 g/ha is 100% and the pest or weed control at 160 µg/disc, 500 g/ha was 100%. Besides, in the experiment on Boophilus microplus, the pest or weed control at 0.004 mg was found to be 100% and the pest or weed control at 0.02 mg stood at 100%.

Turning to `C[C@H](Nc1nc2cc(C(F)(F)F)cc(Cl)c2o1)c1ncnn1-c1ccc(C(F)(F)F)cn1` [Example I-027], the pest or weed control at 5 µg/cm2 in experiment [1] came out at 100%. Also, the mortality at 500 g/ha with Spodoptera frugiperda is 100%. In the experiment on Boophilus microplus, the pest or weed control at 0.004 mg stood at 100% and the pest or weed control at 0.02 mg was determined as 100%.

On to `Cc1nc([C@H](C)Nc2nc3cc(C(F)(F)F)cc(C(F)(F)F)c3o2)n(-c2ccc(C(F)(F)F)cn2)n1` [Example I-029], for which the pest or weed control at 5 µg/cm2 in experiment [1] was 100%.

On to `C[C@H](Nc1nc2cc(C(F)(F)F)cc(C(F)(F)F)c2o1)c1ncnn1-c1ccc(C(F)(F)F)cn1` [Example I-030], for which, in the experiment on Boophilus microplus, the pest or weed control at 0.004 mg came out at 80% and the pest or weed control at 0.02 mg is 100%.

For the molecule `C[C@H](Nc1nc2cc(C(F)(F)F)cc(C(F)(F)F)c2o1)c1ncnn1-c1ccc(Cl)cn1` [Example I-032], in the experiment on Spodoptera frugiperda, the mortality at 500 g/ha stood at 100%. Besides, the pest or weed control at 0.02 mg in the experiment on Boophilus microplus was determined as 100%.

As to `Cc1csc(-n2ncnc2[C@H](C)Nc2nc3cc(C(F)(F)F)cc(Cl)c3o2)n1` [Example I-038, 7-chloro-N-{(1S)-1-[1-(4-methyl-1,3-thiazol-2-yl)-1H-1,2,4-triazol-5-yl]ethyl}-5-(trifluoromethyl)-1,3-benzoxazol-2-amine], the pest or weed control at 0.004 mg in the experiment with Boophilus microplus was found to be 80%.

With `COc1cnc(-n2ncnc2[C@H](C)Nc2nc3cc(C(F)(F)F)cc(Cl)c3o2)nc1` [Example I-043, 7-Chlor-N-{(1S)-1-[1-(5-methoxypyrimidin-2-yl)-1H-1,2,4-triazol-5-yl]ethyl}-5-(trifluormethyl)-1,3-benzoxazol-2-amin], the mortality at 100 g/ha in the experiment with Spodoptera frugiperda was found to be 100%.

With `COc1ccnc(-n2ncnc2[C@H](C)Nc2nc3cc(C(F)(F)F)cc(Cl)c3o2)n1` [Example I-051, 7-Chlor-N-{(1S)-1-[1-(4-methoxypyrimidin-2-yl)-1H-1,2,4-triazol-5-yl]ethyl}-5-(trifluormethyl)-1,3-benzoxaozl-2-amin], the pest or weed control at 5 µg/cm2 in experiment [1] came out at 80%. The pest or weed control at 0.02 mg in the experiment with Boophilus microplus turned out to be 100%.

As to `C[C@H](Nc1nc2cc(C(F)(F)F)cc(Br)c2o1)c1ncnn1-c1ccc(Cl)cn1` [Example I-054, 7-Brom-N-{(1S)-1-[1-(5-chlorpyridin-2-yl)-1H-1,2,4-triazol-5-yl]ethyl}-5-(trifluormethyl)-1,3-benzoxazol-2-amin], in experiment [1], the pest or weed control at 5 µg/cm2 was 100%. The mortality at 500 g/ha in the experiment with Spodoptera frugiperda was 100%. For the same molecule, the pest or weed control at 0.02 mg with Boophilus microplus stood at 100%.

In the case of `CC(C)c1cc(Cl)c2oc(N[C@@H](C)c3ncnn3-c3ncccn3)nc2c1` [Example I-063, 7-Chlor-5-isopropyl-N-{(1S)-1-[1-(pyrimidin-2-yl)-1H-1,2,4-triazol-5-yl]ethyl}-1,3-benzoxazol-2-amin], in the experiment on Diabrotica balteata, the pest or weed control at 100 g/ha came to 100% and the pest or weed control at 160 µg/disc, 500 g/ha was 80%. Moreover, in the experiment with Boophilus microplus, the pest or weed control at 0.004 mg turned out to be 80% and the pest or weed control at 0.02 mg came to 100%.

On to `CC(C)c1cc(Cl)c2oc(N[C@@H](C)c3ncnn3-c3cc(C#N)ccn3)nc2c1` [Example I-064, 2-(5-{(1S)-1-[(7-Chlor-5-isopropyl-1,3-benzoxazol-2-yl)amino]ethyl}-1H-1,2,4-triazol-1-yl)isonicotinonitril], for which, in the experiment with Diabrotica balteata, the pest or weed control at 100 g/ha came to 100% and the pest or weed control at 160 µg/disc, 500 g/ha came out at 100%. Moreover, the pest or weed control at 0.02 mg with Boophilus microplus came to 80%.

Regarding `CC(C)c1cc(Cl)c2oc(N[C@@H](C)c3ncnn3-c3ncc(Br)cn3)nc2c1` [Example I-068, N-{(1S)-1-[1-(5-Brompyrimidin-2-yl)-1H-1,2,4-triazol-5-yl]ethyl}-7-chlor-5-isopropyl-1,3-benzoxazol-2-amin], the pest or weed control at 5 µg/cm2 in experiment [1] amounted to 80%. Also, in the experiment on Boophilus microplus, the pest or weed control at 0.004 mg worked out at 100% and the pest or weed control at 0.02 mg is 100%.

Take `C[C@H](Nc1nc2cc(C(C)(C)C)cc(Cl)c2o1)c1ncnn1-c1ccc(C#N)cn1` [Example I-077, 6-(5-[(1S)-1-[(5-tert-Butyl-7-chlor-1,3-benzoxazol-2-yl)amino]ethyl}-1H-1,2,4-triazol-1-yl)nicotinonitril]: in the experiment on Boophilus microplus, the pest or weed control at 0.004 mg was determined as 100% and the pest or weed control at 0.02 mg was 100%.

`C[C@H](Nc1nc2cc(S(=O)(=O)c3ccccc3)cc(Cl)c2o1)c1ncnn1-c1ncccn1` [Example I-080, 7-Chlor-5-(phenylsulfonyl)-N-{(1S)-1-[1-(pyrimidin-2-yl)-1H-1,2,4-triazol-5-yl]ethyl}-1,3-benzoxazol-2-amin]: in experiment [1], the pest or weed control at 5 µg/cm2 came out at 100%.

On to `Cc1nc([C@H](C)Nc2nc3cc(Cl)cc(C(F)(F)F)c3o2)n(-c2ncccn2)n1` [Example I-089, 5-Chlor-N-{(1S)-1-[3-methyl-1-(pyrimidin-2-yl)-1H-1,2,4-triazol-5-yl]ethyl}-7-(trifluormethyl)-1,3-benzoxazol-2-amin], for which, in the experiment on Boophilus microplus, the pest or weed control at 0.004 mg was found to be 100% and the pest or weed control at 0.02 mg is 100%.

On to `COc1nc([C@H](C)Nc2nc3cc(C(F)(F)F)c(Cl)cc3o2)n(-c2ccc(C#N)cn2)n1` [Example I-101, 6-{5-[(1S)-1-{[6-chloro-5-(trifluoromethyl)-1,3-benzoxazol-2-yl]amino}ethyl]-3-methoxy-1H-1,2,4-triazol-1-yl}pyridine-3-carbonitrile], for which, in the experiment on Diabrotica balteata, the pest or weed control at 100 g/ha was 100%.

In the case of `CCN(CC)C(=O)c1ccc(-n2ncnc2[C@H](C)Nc2nc3cc(C(F)(F)F)c(Cl)cc3o2)nc1` [Example I-102, 6-{5-[(1S)-1-{[6-chloro-5-(trifluoromethyl)-1,3-benzoxazol-2-yl]amino}ethyl]-1H-1,2,4-triazol-1-yl}-N,N-diethylpyridine-3-carboxamide], in the experiment with Spodoptera frugiperda, the mortality at 100 g/ha is 100%. In addition, the pest or weed control at 100 g/ha with Diabrotica balteata was 100%.

As for `C[C@H](Nc1nc2cc(C(F)(F)F)c(Cl)cc2o1)c1ncnn1-c1ccc(C(=O)N2CCCC2)cn1` [Example I-103, (6-{5-[(1S)-1-{[6-chloro-5-(trifluroomethyl)-1,3-benzoxazol-2-yl]amino}ethyl]-1H-1,2,4-triazol-1-yl}pyridin-3-yl)(pyrrolidin-1-yl)methanone], the pest or weed control at 100 g/ha in the experiment on Diabrotica balteata is 100%.
